Laboratory results taken from patent publication US20260256792A1, “TREATMENT OF CHRONIC SPONTANEOUS URTICARIA BY ADMINISTERING (R)-2-[3-[4-AMINO-3-(2-FLUORO-4-PHENOXY-PHENYL)PYRAZOLO[3,4-D]PYRIMIDIN-1-YL]PIPERIDINE-1-CARBONYL]-4-METHYL-4-[4-(OXETAN-3-YL)PIPERAZIN-1-YL]PENT-2-ENENITRILE” (priority 2023, published 2026).

System: moderate-to-severe chronic spontaneous urticaria (CSU)
Test: Phase 2 CSU study: itch severity score over 7 days (ISS7)
Assay type: in vivo, human
Conditions: for Change from Baseline in ISS7 at Week 12, LS Mean / Change from Baseline in ISS7 at Week 12, LS Mean Diff vs. placebo / Change from Baseline in ISS7 at Week 12, Mean: Omalizumab-naïve population; for ISS7 change from baseline at Week 12, LS Mean / ISS7 change from baseline at Week 12, LS Mean Diff vs. placebo: ANCOVA
Description: The study comprises a 12 week, randomized, double-blind, placebo-controlled, multi-center, dose-ranging efficacy and safety phase, followed by a 40 week open label extension (OLE) phase (see FIG. 1). The study consists of three phases and an optional OLE phase. […] Clinically, CSU is characterized by the spontaneous and recurrent appearance of pruritic hives. The proposed primary endpoints were the UAS7 at Week 12 in EU and EU reference countries and the ISS7 in the US. Regardless of where a participant was from, all assessments were the same. The UAS7 score is a composite score containing both the HSS7 and the ISS7. This allowed a global assessment of the two key components of urticaria: hives and itch. […] The UAS is a validated PRO measure. […] The daily UAS scores range from 0 to 6 point/day. […] Patients were to complete the UAS using the e-diary. […] The following secondary endpoints were to be analyzed using the same approach as for the primary endpoint: • Change from baseline in UAS7 at Week 4 • Change from baseline in UAS7 at Week 12 (for US and US reference countries) • Change from baseline in ISS7 at Week 12 (except US and US reference countries) • Change from baseline in HSS7 at Week 12

[1] = 400 mg QPM, Duration of disease (years) <2
[2] = 400 mg QPM, Duration of disease (years) >10
[3] = 400 mg QPM, Ethnicity Non-Hispanic
[4] = 400 mg QPM, History of angioedema No
[5] = 400 mg QPM, History of angioedema Yes
[6] = 400 mg QPM, Race All the Others
[7] = 400 mg QPM, Region Eastern Europe
[8] = 400 mg QPM, Region Latin America
[9] = 400 mg QPM, Region Western Countries
[10] = 400 mg QPM, omalizumab-naïve population
[11] = 400 mg QPM, omalizumab-naïve population with outlier removed
[12] = 400 mg TID, Age group (years) <44 (Median)
[13] = 400 mg TID, Age group (years) <65
[14] = 400 mg TID, Age group (years) ≥44 (Median)
[15] = 400 mg TID, Baseline BHRA BHRA+
[16] = 400 mg TID, Baseline BHRA BHRA−
[17] = 400 mg TID, Baseline Eosinophils (10^9/L) <0.150
[18] = 400 mg TID, Baseline Eosinophils (10^9/L) <0.165 (Median)
[19] = 400 mg TID, Baseline Eosinophils (10^9/L) <0.3
[20] = 400 mg TID, Baseline Eosinophils (10^9/L) ≥0.150
[21] = 400 mg TID, Baseline Eosinophils (10^9/L) ≥0.165 (Median)
[22] = 400 mg TID, Baseline Eosinophils (10^9/L) ≥0.3
[23] = 400 mg TID, Baseline H1-antihistamines dose 1-fold
[24] = 400 mg TID, Baseline H1-antihistamines dose 2 to 4-fold standard dose

CC(C)(C=C(C#N)C(=O)N1CCC[C@@H](n2nc(-c3ccc(Oc4ccccc4)cc3F)c3c(N)ncnc32)C1)N1CCN(C2COC2)CC1 [rilzabrutinib, (R)-2-[3-[4-amino-3-(2-fluoro-4-phenoxy-phenyl)pyrazolo[3,4-d]pyrimidin-1-yl]piperidine-1-carbonyl]-4-methyl-4-[4-(oxetan-3-yl)piperazin-1-yl]pent-2-enenitrile]
Change from Baseline in ISS7 at Week 12, LS Mean [1]: −4.83 | Change from Baseline in ISS7 at Week 12, LS Mean Diff vs. placebo [1]: −1.18 | Change from Baseline in ISS7 at Week 12, Mean [1]: −5.46 | Change from Baseline in ISS7 at Week 12, LS Mean [2]: −0.20 | Change from Baseline in ISS7 at Week 12, LS Mean Diff vs. placebo [2]: 3.49 | Change from Baseline in ISS7 at Week 12, Mean [2]: −3.29 | Change from Baseline in ISS7 at Week 12, LS Mean (400 mg QPM, Ethnicity Hispanic): −4.19 | Change from Baseline in ISS7 at Week 12, LS Mean Diff vs. placebo (400 mg QPM, Ethnicity Hispanic): 2.82 | Change from Baseline in ISS7 at Week 12, Mean (400 mg QPM, Ethnicity Hispanic): −5.04 | Change from Baseline in ISS7 at Week 12, LS Mean [3]: −5.29 | Change from Baseline in ISS7 at Week 12, LS Mean Diff vs. placebo [3]: −0.82 | Change from Baseline in ISS7 at Week 12, Mean [3]: −6.12 | Change from Baseline in ISS7 at Week 12, Mean (400 mg QPM, Gender Female): −5.86 | Change from Baseline in ISS7 at Week 12, Mean (400 mg QPM, Gender Male): −5.20 | Change from Baseline in ISS7 at Week 12, LS Mean [4]: −4.56 | Change from Baseline in ISS7 at Week 12, LS Mean Diff vs. placebo [4]: 0.78 | Change from Baseline in ISS7 at Week 12, Mean [4]: −5.32 | Change from Baseline in ISS7 at Week 12, LS Mean [5]: −5.00 | Change from Baseline in ISS7 at Week 12, LS Mean Diff vs. placebo [5]: 0.25 | Change from Baseline in ISS7 at Week 12, Mean [5]: −6.31 | ISS7 at Week 12, Mean (400 mg QPM, ITT population): 11.37 | ISS7 at Week 12, Median (400 mg QPM, ITT population): 11.20 | ISS7 change from baseline at Week 12, Mean (400 mg QPM, ITT population): −5.95 | ISS7 change from baseline at Week 12, Median (400 mg QPM, ITT population): −5.67 | ISS7 change from baseline at Week 12, LS Mean (400 mg QPM, ITT population): −5.46 points | ISS7 change from baseline at Week 12, LS Mean Diff vs. placebo (400 mg QPM, ITT population): 0.85 | Change from Baseline in ISS7 at Week 12, LS Mean [6]: −4.94 | Change from Baseline in ISS7 at Week 12, LS Mean Diff vs. placebo [6]: −1.48 | Change from Baseline in ISS7 at Week 12, Mean [6]: −5.66 | Change from Baseline in ISS7 at Week 12, LS Mean (400 mg QPM, Race White): −4.41 | Change from Baseline in ISS7 at Week 12, LS Mean Diff vs. placebo (400 mg QPM, Race White): 1.60 | Change from Baseline in ISS7 at Week 12, Mean (400 mg QPM, Race White): −5.70 | Change from Baseline in ISS7 at Week 12, LS Mean (400 mg QPM, Region Asia): −5.17 | Change from Baseline in ISS7 at Week 12, LS Mean Diff vs. placebo (400 mg QPM, Region Asia): −1.72 | Change from Baseline in ISS7 at Week 12, Mean (400 mg QPM, Region Asia): −5.66 | Change from Baseline in ISS7 at Week 12, LS Mean [7]: −4.74 | Change from Baseline in ISS7 at Week 12, LS Mean Diff vs. placebo [7]: 7.93 | Change from Baseline in ISS7 at Week 12, Mean [7]: −5.54 | Change from Baseline in ISS7 at Week 12, LS Mean [8]: −5.19 | Change from Baseline in ISS7 at Week 12, LS Mean Diff vs. placebo [8]: 1.40 | Change from Baseline in ISS7 at Week 12, Mean [8]: −6.51 | Change from Baseline in ISS7 at Week 12, LS Mean [9]: −3.02 | Change from Baseline in ISS7 at Week 12, LS Mean Diff vs. placebo [9]: 1.53 | Change from Baseline in ISS7 at Week 12, Mean [9]: −4.61 | ISS7 at Week 12, Median [10]: 11.60 | ISS7 change from baseline at Week 12, Mean [10]: −5.69 | ISS7 change from baseline at Week 12, Median [10]: −5.33 | ISS7 at Week 12, Median [11]: 11.60 | ISS7 change from baseline at Week 12, Mean [11]: −5.69 | ISS7 change from baseline at Week 12, Median [11]: −5.33 | ISS7 change from baseline at Week 12, LS Mean [11]: −5.29 points | ISS7 change from baseline at Week 12, LS Mean Diff vs. placebo [11]: 0.42 | ISS7 change from baseline at Week 12, LS Mean [10]: −5.19 points | ISS7 change from baseline at Week 12, LS Mean Diff vs. placebo [10]: 0.58 | patients with improvement in the weekly ISS7 (400 mg TID arm): all patients except one showed improvement | Change from Baseline in ISS7 at Week 12, LS Mean [12]: −9.04 | Change from Baseline in ISS7 at Week 12, LS Mean Diff vs. placebo [12]: −4.56 | Change from Baseline in ISS7 at Week 12, LS Mean [13]: −8.63 | Change from Baseline in ISS7 at Week 12, LS Mean Diff vs. placebo [13]: −2.97 | Change from Baseline in ISS7 at Week 12, Mean [13]: −9.73 | Change from Baseline in ISS7 at Week 12, LS Mean [14]: −9.26 | Change from Baseline in ISS7 at Week 12, LS Mean Diff vs. placebo [14]: −2.66 | Change from Baseline in ISS7 at Week 12, Mean [14]: −10.16 | Change from Baseline in ISS7 at Week 12, Mean (400 mg TID, Age group (years) ≥65): −13.50 | Change from Baseline in ISS7 at Week 12, LS Mean [15]: −12.96 | Change from Baseline in ISS7 at Week 12, LS Mean Diff vs. placebo [15]: −7.58 | Change from Baseline in ISS7 at Week 12, Mean [15]: −12.42 | Change from Baseline in ISS7 at Week 12, LS Mean [16]: −8.82 | Change from Baseline in ISS7 at Week 12, Mean [16]: −9.91 | Change from Baseline in ISS7 at Week 12, LS Mean Diff vs. placebo (400 mg TID, Baseline BMI (kg/m^2) ≥30): −3.19 | Change from Baseline in ISS7 at Week 12, LS Mean [17]: −10.28 | Change from Baseline in ISS7 at Week 12, LS Mean Diff vs. placebo [17]: −3.50 | Change from Baseline in ISS7 at Week 12, LS Mean [18]: −10.22 | Change from Baseline in ISS7 at Week 12, LS Mean Diff vs. placebo [18]: −3.71 | Change from Baseline in ISS7 at Week 12, Mean [18]: −10.99 | Change from Baseline in ISS7 at Week 12, LS Mean [19]: −9.46 | Change from Baseline in ISS7 at Week 12, LS Mean Diff vs. placebo [19]: −3.99 | Change from Baseline in ISS7 at Week 12, Mean [19]: −10.61 | Change from Baseline in ISS7 at Week 12, LS Mean [20]: −8.30 | Change from Baseline in ISS7 at Week 12, LS Mean Diff vs. placebo [20]: −4.31 | Change from Baseline in ISS7 at Week 12, LS Mean [21]: −8.24 | Change from Baseline in ISS7 at Week 12, LS Mean Diff vs. placebo [21]: −4.16 | Change from Baseline in ISS7 at Week 12, Mean [21]: −9.55 | Change from Baseline in ISS7 at Week 12, LS Mean [22]: −8.12 | Change from Baseline in ISS7 at Week 12, LS Mean Diff vs. placebo [22]: −3.27 | Change from Baseline in ISS7 at Week 12, Mean [22]: −8.68 | Change from Baseline in ISS7 at Week 12, LS Mean [23]: −8.05 | Change from Baseline in ISS7 at Week 12, LS Mean Diff vs. placebo [23]: −1.22 | Change from Baseline in ISS7 at Week 12, Mean [23]: −8.88 | Change from Baseline in ISS7 at Week 12, LS Mean [24]: −11.00 | Change from Baseline in ISS7 at Week 12, LS Mean Diff vs. placebo [24]: −7.52
